# Assay results: US9393251B2, “Compositions and methods for treating severe thrombocytopenia related disease” (priority 2013, dated 2016)
# Key:
# IL-6 and IL-2 = conditions: Muller et al. 1991; cited from earlier work
# [1] = system: multiple sclerosis in the murine model; conditions: Cantorna 1996; Pedersen 2007; cited from earlier work
# [2] = Side effects of high-dose Vitamin D in the two ITP patients; type: in vivo, human
# Experimental: The patient's platelet count was 215,000/mm^3 six weeks after discontinuing prednisone, indicating a regimen of hydroxychloroquine at a dose of 200 mg twice a day and Vitamin D at a dose of 50,000 IU once a week was sufficient to maintain a stable count. The patient remained stable without the administration of prednisone.
# In the above examples, an association between vitamin D deficiency and immune thrombocytopenia in two patients is described. Both patients had SLE and/or Sjögren's overlap with positive serology and profound life-threatening thrombocytopenia, all of which were unaffected by conventional therapies. […] After discontinuation of supplemental Vitamin D in one patient (Example 1), the 25-OH Vitamin D normalized, but the platelet count subsequently plummeted. Resuming vitamin D supplementation restored the platelet count to the previous normal range.
# [3] = system: rheumatoid arthritis, systemic lupus erythematosus and Sjögren's syndrome; assay: Patients with rheumatoid arthritis, systemic lupus erythematosus and Sjögren's syndrome treated with the combination (Example 4); type: in vivo, human; conditions: after Vitamin D deficiency corrected with high dose Vitamin D replacement
# Experimental: Low levels of vitamin D have been implicated in a number of autoimmune disorders, such as rheumatoid arthritis, systemic lupus erythematosus, and Sjögren's syndrome. Patients with rheumatoid arthritis, systemic lupus erythematosus and Sjögren's syndrome were treated with a combination of weekly high doses of Vitamin D (50,000 IU) and daily doses of 400 mg of hydroxychloroquine.
smiles,measurement,setting,value
"C=C1/C(=C\C=C2/CCC[C@]3(C)[C@@H]([C@H](C)CCCC(C)(C)O)CC[C@@H]23)C[C@@H](O)C[C@@H]1O [Vitamin D, 1a,25-dihydroxy cholecalciferol]",production of interleukin IL-6 and IL-2 in cell cultures,IL-6 and IL-2,reduced
same,development of multiple sclerosis in the murine model,[1],can inhibit the development of multiple sclerosis
same,"changes in calcium, phosphate, or creatinine levels",[2]; Example 1 patient,no significant changes
same,untoward side effects,[2]; both patients,neither patient experienced any untoward side effect
same,response to disease modifying anti-rheumatic drugs,[3],enhanced
